Measurements from patent US12083084B2, “Method for enhancing energy production and metabolism in cells” (REPLICON HEALTH OY, priority 2013, dated 2024).
Marks after values point to notes of the source that are not given here.

Legend:
human hepatocytes = assay: Gene expression from hepatocytes lysates; assay type: cell-based; settings: N = 5
[1] = Extended 8 week administration and 2 week control period for S4 (Example 2.2); assay type: in vivo, human; settings: for AST/ALT / S-Bil / S-Uraat / fS-Fe / fS-Trigly: fasting blood
Experimental: For Subject 4 (S4) in Example 2.1, the 4 day test period was prolonged by 8 weeks with reduced, only once a day 5 mg/kg/day administration before going to bed. Additionally in order to have an understanding that the results in the 8 week test were due to the administration of the Innovation, an additional negative control measurement without DGAcs after 2 weeks and 2 days was made (+2 days due to alleviating doses see below). The idea was to see, if the beneficial effects seen in 4 day treatment prevailed in longer term (positive control).

[2] = test system: Mitochondria of Primary Rat Cortical Neurons; assay: Mitochondrial Ca2+-uptake in rat cortical neurons (fluorescent imaging); assay type: cell-based; settings: 50 ug/ml for 24 h, N = 3
Experimental: Fluorescent imaging. Imaging experiments were performed at 7 DIV. The cells were loaded with fluorescent dyes (fura4F, fura-ff and rhodamine 123) in cell culture medium at 37° C. 1 h, 5 μM for each dye. Then cells were washed with Mg^2+-free Locke's buffer containing 1.3 mM Ca^2+, moved to the microscope stage, and imaging was performed at room temperature. […] For delayed calcium deregulation experiments a lower affinity Ca^2+-indicator FuraFF (Kd 5.5 μM) was used to avoid a saturation of the signal.
In this study a zero control and one DGAcs group of primary rat cortical neurons was cultivated normally without DGAcs until 6 DIV, and then the DGAcs group was treated with 50 μg/ml DGAcs for 24 hours. After that culture medium was replaced by Mg^2+-free Locke's buffer containing 50 μg/ml DGAcs and imaging experiments were performed at room temperature at 7 DIV.
50 μM NMDA in the presence of 10 μM glycin in Mg^2+-free buffer was used to stimulate the cells.
For complete mitochondrial depolarization and release of Ca^2+ accumulated in mitochondria 2 μM protonophore FCCP was used in the presence of NMDA-receptors inhibitor MK801 (2 μM).

[3] = Hepatic free glycerol after 3 week feeding; assay type: in vivo, rat
Excerpt: From the above experiment altogether 12 rats were chosen from 0.1 g/kg/day DGAcs group (N=6) and zero control (N=6) for a measurement of free glycerol from liver samples. Liver samples contained also blood entering the liver from other tissues, thus on top of hepatic tissues the samples reflect also the metabolic situation in other tissues of the body than just the liver.
In this experiment nutrition intake, except of course for DGAcs, was controlled to be exactly the same during the experimental day, and three day before the experiment. For AA rats, that are used to alcohol but didn't receive any alcohol in 3 day before the experiment, catabolic redox-activity in the cytosol was controlled by giving rats ethanol (equaling 1.2 per mille blood alcohol concentration, which represents only mild alcohol intoxication to the AA rats). The rate of ethanol oxidation remained the same in all groups.
Experimental session started at 8:00 to 9:00 am. To diminish possible pain during the experiments, all animals were injected subcutaneously with buprenorphine (0.01 mg/kg) a few minutes before the blood samples. During the experimental session no difference in other metabolic activity, e.g. rate of ethanol oxidation, between the control and treatment group was detected from blood samples. Immediately after the last blood sample, the animals were anesthetized with pentobarbital (40 mg/kg IP, 1% [wt/vol] in saline). Thereafter (5-10 minutes), liver pieces were quickly (within 2-4 seconds) excised and freeze-clamped. Liver samples were stored at […] until glycerol determination. […] The resulting supernatants were used for free glycerol measurement with an enzymatic end point commercial assay kit (Boehringer-Mannheim, R-Biopharm, Darmstadt, Germany) according to the manufacturer's protocol except that the assays were modified for use with small volumes of supernatant using a 96-well microplate reader (Labsystems Multiskan RS, Helsinki, Finland). […]

[4] = S4, +2 weeks follow up after stopping DGAcs (negative control), change from previous observation (+8 weeks)
[5] = S4, +2 weeks follow up after stopping DGAcs (negative control)
[6] = S4, +8 weeks 5 mg/kg once a day (positive control), change from previous observation (4 day)
[7] = S4, +8 weeks 5 mg/kg once a day (positive control)

O.O.O=C([O-])[C@H](O)CO.O=C([O-])[C@H](O)CO.[Ca+2] [DGAcs, D-glyceric acid, calcium salt dehydrate]
CYP2B6 gene expression deviation from control (human hepatocytes; donor alpha, 1.4 (μM)): 38% | PGC-1a gene expression deviation from control (human hepatocytes; donor alpha, 1.4 (μM)): 5% | CYP2B6 gene expression deviation from control (human hepatocytes; donor alpha, 14 (μM)): 45% | PGC-1a gene expression deviation from control (human hepatocytes; donor alpha, 14 (μM)): 20% | CYP2B6 gene expression deviation from control (human hepatocytes; donor one, 1.4 (μM)): 8% | HO-1 gene expression deviation from control (human hepatocytes; donor one, 1.4 (μM)): 54% | PGC-1a gene expression deviation from control (human hepatocytes; donor one, 1.4 (μM)): 12% | CYP2B6 gene expression deviation from control (human hepatocytes; donor one, 14 (μM)): 3% | HO-1 gene expression deviation from control (human hepatocytes; donor one, 14 (μM)): 50% | PGC-1a gene expression deviation from control (human hepatocytes; donor one, 14 (μM)): 42% | CYP2B6 gene expression deviation from control (human hepatocytes; donor three, 1.4 (μM)): 29% | HO-1 gene expression deviation from control (human hepatocytes; donor three, 1.4 (μM)): 83% | PGC-1a gene expression deviation from control (human hepatocytes; donor three, 1.4 (μM)): 45% | CYP2B6 gene expression deviation from control (human hepatocytes; donor three, 14 (μM)): 49% | HO-1 gene expression deviation from control (human hepatocytes; donor three, 14 (μM)): 21% | PGC-1a gene expression deviation from control (human hepatocytes; donor three, 14 (μM)): 1% | S-Asat, change [1, 4]: 24.1% | S-Bil, change [1, 4]: 41.7% | S-Uraat, change [1, 4]: 19.4% | S-alat, change [1, 4]: −35.1% | fS-Fe, change [1, 4]: −3.2% | fS-Trigly, change [1, 4]: −17.8% | AST/ALT [1, 5]: 1.44 | S-Bil [1, 5]: 10.2 | S-Uraat [1, 5]: 295 | fS-Fe [1, 5]: 15.1 | fS-Trigly [1, 5]: 1.11 | S-Asat, change [1, 6]: 31.8% | S-Bil, change [1, 6]: −25.8% | S-Uraat, change [1, 6]: 0.4% | S-alat, change [1, 6]: 85.0% | fS-Fe, change [1, 6]: −22.8% | fS-Trigly, change [1, 6]: −22.0% | AST/ALT [1, 7]: 0.78 | S-Bil [1, 7]: 7.2 | S-Uraat [1, 7]: 247 | fS-Fe [1, 7]: 15.6 | fS-Trigly [1, 7]: 1.35 | time without dose until withdrawal symptoms started ([1]; S4, after 8 weeks of 5 mg/kg/day): 36 h | withdrawal symptoms after stopping administration ([1]; S4, after 8 weeks of 5 mg/kg/day, bad feeling inside the head, dizziness, uneasiness): very clear but not severe | Average Ca release, FCCP ([2]; 2 μM FCCP + MK801 (complete mitochondrial depolarization)): 0.475 *) | Average Ca release, peak NMDA ([2]; 50 μM NMDA): 0.219 | Average Ca release, baseline Ca [2]: 0.070 | glycerol levels increased compared to the control ([3]; 0.1 g/kg group): 59% | increase in the concentration of free glycerol compared to the control samples ([3]; 0.1 g/kg group): roughly 0.17 g/kg | Free glycerol concentration (hepatic, including extracellular matrix) ([3]; 0.1 g/kg per day in diet for 3 weeks, AA rats, n = 6, no acute dose): 4.88 +/− 1.21 (6) * Micromoles Per Gram Wet Weight Tissue
